From patent US20070128217A1 (priority 2003, published 2007)

Key:
[1] = test system: antibodies in sera from SARS patients (sera 1a, 1b, 2, 6, 37, 62, London, SARS-yellow, SARS-green); assay type: binding, human; parameters: Binding of serum 6 to linear peptides of protein X1 of SARS-CoV Urbani / Binding of serum 37 to linear peptides of protein X1 of SARS-CoV Urbani / Binding of serum 6 to looped/cyclic peptide (PEPSCAN-ELISA) / Binding of serum 37 to looped/cyclic peptide (PEPSCAN-ELISA) / Binding of serum 37 to looped/cyclic peptides of protein X1 of SARS-CoV Urbani / Binding of serum 6 to linear peptides of protein X2 / Binding of serum 37 to linear peptides of protein X2 / Binding of serum 37 to looped/cyclic peptides of protein X2 of SARS-CoV Urbani / Binding of serum 6 to linear peptides of protein M of SARS-CoV Urbani / Binding of serum 37 to linear peptides of protein M of SARS-CoV Urbani / Binding of serum 6 to looped/cyclic peptides of protein M of SARS-CoV Urbani / Binding of serum 37 to looped/cyclic peptides of protein M of SARS-CoV Urbani / Binding of serum 6 to linear peptides of protein X3 of SARS-CoV Urbani / Binding of serum 37 to linear peptides of protein X3 of SARS-CoV Urbani / Binding of serum 37 to looped/cyclic peptides of protein X3 of SARS-CoV Urbani / Binding of serum 6 to linear peptides of protein X4 of SARS-CoV Urbani / Binding of serum 37 to linear peptides of protein X4 of SARS-CoV Urbani / Binding of serum 37 to looped/cyclic peptides of protein X4 of SARS-CoV Urbani / Binding of serum 6 to linear peptides of protein X5 of SARS-CoV Urbani / Binding of serum 37 to linear peptides of protein X5 of SARS-CoV Urbani / Binding of serum 37 to looped/cyclic peptides of protein X5 of SARS-CoV Urbani / Binding of serum 6 to linear peptides of protein N of SARS-CoV Urbani / Binding of serum 37 to linear peptides of protein N of SARS-CoV Urbani / Binding of serum 6 to linear peptide (PEPSCAN-ELISA) / Binding of serum 1a to looped/cyclic peptides of protein N of SARS-CoV Urbani / Binding of serum 1b to looped/cyclic peptides of protein N of SARS-CoV Urbani / Binding of serum 2 to looped/cyclic peptides of protein N of SARS-CoV Urbani / Binding of serum 6 to looped/cyclic peptides of protein N of SARS-CoV Urbani / Binding of serum 37 to looped/cyclic peptides of protein N of SARS-CoV Urbani / Binding of serum 62 to looped/cyclic peptides of protein N of SARS-CoV Urbani / Binding of serum London to looped/cyclic peptides of protein N of SARS-CoV Urbani / Binding of serum SARS-green to looped/cyclic peptides of protein N of SARS-CoV Urbani: unit not given here
[2] = test system: control sera (pooled serum of ten healthy LUMC hospital workers; commercial negative donor pooled serum from the Dutch bloodbank); assay type: binding, human; parameters: Binding of Control serum LUMC to linear peptides / Binding of Control serum Blood-bank to linear peptides / Binding of Control serum LUMC to looped peptides / Binding of Control Serum Blood-Bank to Looped peptides / Binding of Control serum LUMC to linear peptides of the protein M of SARS-CoV Urbani / Binding of Control serum Blood-bank to linear peptides of the protein M of SARS-CoV Urbani / Binding of Control serum LUMC to looped peptides of the protein M of SARS-CoV Urbani / Binding of Control Serum Blood-Bank to Looped peptides of the protein M of SARS-CoV Urbani: unit not given here
[3] = test system: rabbit serum obtained by immunizing a rabbit with the SARS-CoV strain Frankfurt 1; assay type: binding; parameters: Binding of a rabbit serum to linear peptides / Binding of a rabbit serum to looped peptides / Rabbit serum linear peptides / Rabbit serum looped peptides / Binding of a rabbit serum to linear peptides of protein N of SARS-CoV Urbani (Rabbit serum linear peptides) / Binding of a rabbit serum to looped/cyclic peptides of protein N of SARS-CoV Urbani (Rabbit serum looped peptides): unit not given here

CELYHYQECVRGTTV was tested, and the “Binding of serum 1a to linear peptides of protein X4 of SARS-CoV Urbani” value [1] was 0.8, the “Binding of serum 1a to looped/cyclic peptides of protein X4 of SARS-CoV Urbani” value [1] was 0.8 and the “Binding of serum 1b to linear peptides of protein X4 of SARS-CoV Urbani” value [1] was 0.7. The “Binding of serum 1b to looped/cyclic peptides of protein X4 of SARS-CoV Urbani” value [1] was 0.4, the “Binding of serum 2 to linear peptides of protein X4 of SARS-CoV Urbani” value [1] was 0.5 and the “Binding of serum 2 to looped/cyclic peptides of protein X4 of SARS-CoV Urbani” value [1] was 0.8. For the same sequence, the “Binding of serum 6 to linear peptides of protein X4 of SARS-CoV Urbani” value [1] was 0.6, the “Binding of serum 6 to looped/cyclic peptides of protein X4 of SARS-CoV Urbani” value [1] was 0.5 and the “Binding of serum 37 to linear peptides of protein X4 of SARS-CoV Urbani” value [1] was 0.9. The “Binding of serum 37 to looped/cyclic peptides of protein X4 of SARS-CoV Urbani” value [1] was 0.8, the “Binding of serum 62 to linear peptides of protein X4 of SARS-CoV Urbani” value [1] was 0.8 and the “Binding of serum 62 to looped/cyclic peptides of protein X4 of SARS-CoV Urbani” value [1] was 0.6. For the same sequence, the “Binding of serum London to linear peptides of protein X4 of SARS-CoV Urbani” value [1] was 0.9, the “Binding of serum London to looped/cyclic peptides of protein X4 of SARS-CoV Urbani” value [1] was 0.3 and the “Binding of serum SARS-green to linear peptides of protein X4 of SARS-CoV Urbani” value [1] was 0.7. The “Binding of serum SARS-green to looped/cyclic peptides of protein X4 of SARS-CoV Urbani” value [1] was 0.2, the “Binding of serum SARS-yellow to linear peptides of protein X4 of SARS-CoV Urbani” value [1] was 0.6 and the “Binding of serum SARS-yellow to looped/cyclic peptides of protein X4 of SARS-CoV Urbani” value [1] was 0.4. The “Binding of Control Serum Blood-Bank to Looped peptides” value [2] was 0.5, the “Binding of Control serum Blood-bank to linear peptides” value [2] was 0.5 and the “Binding of Control serum LUMC to linear peptides” value [2] was 0.5. For the same sequence, the “Binding of Control serum LUMC to looped peptides” value [2] was 0.6, the “Rabbit serum linear peptides” value [3] was 0.4 and the “Rabbit serum looped peptides” value [3] was 0.2.

For MWLSYFVASFRLFAR, the “Binding of serum 1a to linear peptides of protein M of SARS-CoV Urbani” value [1] was 0.6, the “Binding of serum 1b to linear peptides of protein M of SARS-CoV Urbani” value [1] was 0.3 and the “Binding of serum 2 to linear peptides of protein M of SARS-CoV Urbani” value [1] was 0.5. For the same sequence, the “Binding of serum 6 to linear peptides of protein M of SARS-CoV Urbani” value [1] was 0.3, the “Binding of serum 37 to linear peptides of protein M of SARS-CoV Urbani” value [1] was 0.6 and the “Binding of serum 62 to linear peptides of protein M of SARS-CoV Urbani” value [1] was 0.7. For the same sequence, the “Binding of serum London to linear peptides of protein M of SARS-CoV Urbani” value [1] was 0.3, the “Binding of serum SARS-green to linear peptides of protein M of SARS-CoV Urbani” value [1] was 0.2 and the “Binding of serum SARS-yellow to linear peptides of protein M of SARS-CoV Urbani” value [1] was 0.1. For the same sequence, the “Recognition of the peptide by sera of SARS-CoV infected individuals, and form (linear, looped/cyclic) in which it is recognized” value [1] was “recognized in looped/cyclic form”, the “Binding of Control Serum Blood-Bank to Looped peptides of the protein M of SARS-CoV Urbani” value [2] was 0.7 and the “Binding of Control serum Blood-bank to linear peptides of the protein M of SARS-CoV Urbani” value [2] was 0.5. The “Binding of Control serum LUMC to linear peptides of the protein M of SARS-CoV Urbani” value [2] was 0.2, the “Binding of Control serum LUMC to looped peptides of the protein M of SARS-CoV Urbani” value [2] was 0.7 and the “Rabbit serum linear peptides” value [3] was 0.4. For the same sequence, the “Rabbit serum looped peptides” value [3] was 0.5.

With ITMTTVYHITVSQIQ the “Binding of serum 1a to linear peptides of protein X2” value [1] was 0.7, the “Binding of serum 1a to looped/cyclic peptides of protein X2 of SARS-CoV Urbani” value [1] was 0.4 and the “Binding of serum 1b to linear peptides of protein X2” value [1] was 0.2. For the same sequence, the “Binding of serum 1b to looped/cyclic peptides of protein X2 of SARS-CoV Urbani” value [1] was 0.5, the “Binding of serum 2 to linear peptides of protein X2” value [1] was 0.3 and the “Binding of serum 2 to looped/cyclic peptides of protein X2 of SARS-CoV Urbani” value [1] was 0.2. For the same sequence, the “Binding of serum 6 to linear peptides of protein X2” value [1] was 0.5, the “Binding of serum 6 to looped/cyclic peptides of protein X2 of SARS-CoV Urbani” value [1] was 0.2 and the “Binding of serum 37 to linear peptides of protein X2” value [1] was 0.7. The “Binding of serum 37 to looped/cyclic peptides of protein X2 of SARS-CoV Urbani” value [1] was 0.4, the “Binding of serum 62 to linear peptides of protein X2” value [1] was 0.4 and the “Binding of serum 62 to looped/cyclic peptides of protein X2 of SARS-CoV Urbani” value [1] was 0.5. The “Binding of serum London to linear peptides of protein X2” value [1] was 0.5, the “Binding of serum London to looped/cyclic peptides of protein X2 of SARS-CoV Urbani” value [1] was 0.2 and the “Binding of serum SARS-green to linear peptides of protein X2” value [1] was 0.2. The “Binding of serum SARS-green to looped/cyclic peptides of protein X2 of SARS-CoV Urbani” value [1] was 0.3, the “Binding of serum SARS-yellow to linear peptides of protein X2” value [1] was 0.0 and the “Binding of serum SARS-yellow to looped/cyclic peptides of protein X2 of SARS-CoV Urbani” value [1] was 0.3. The “Binding of Control Serum Blood-Bank to Looped peptides” value [2] was 0.5, the “Binding of Control serum Blood-bank to linear peptides” value [2] was 0.4 and the “Binding of Control serum LUMC to linear peptides” value [2] was 0.4. The “Binding of Control serum LUMC to looped peptides” value [2] was 0.5, the “Binding of a rabbit serum to linear peptides” value [3] was 0.3 and the “Binding of a rabbit serum to looped peptides” value [3] was 0.3.
